Measured values from patent US8748451B2, “HDAC inhibitors and therapeutic methods of using same” (The Board of Trustees of the University of Illinois, priority 2009, dated 2014).
Where two headings read alike, the source gives them in different places.

Legend:
Aβ-infused mice = experiment: Contextual fear conditioning after Aβ42 infusion; format: in vivo
Procedure: In this test, mice were infused with Aβ42 via cannulas implanted into dorsal hippocampus 15 minutes prior to training. […] Fear learning was assessed 24 hours later.

mice = experiment: Visible platform test; format: in vivo; conditions: injected twice a day for two days
murine Treg = experiment: Murine Treg suppression; format: cell-based
[1] = test system: collagen-induced arthritis model in DBA1/J mice; experiment: Collagen-induced arthritis model; format: in vivo; conditions: 50 and 100 mg/kg IP
Description: In this test, DBA1/J mice (male, 7-8 weeks) were used, with 8 animals per group. Systemic arthritis was induced with bovine collagen type II and CFA, plus an IFA booster injection on day 21.
The results are summarized in FIG. 3, containing graphs of Average Arthritic Score vs. Days of Treatment.

primary cortical neurons = experiment: HCA oxidative stress neuroprotection assay (MTT viability)
Human HDAC6 = Human HDAC6 (Homo sapiens (Human), UniProt Q9UBN7); experiment: HDAC6 inhibition assay (fluorogenic p53 peptide substrate); format: biochemical; conditions: for IC50: mean of two experiments (TSA: 9), 10-dose, 3-fold serial dilution from 30 μM, read-out: HDAC6 IC50 (μM) ± SD
Chain of Human HDAC6 (Q9UBN7 whole entry): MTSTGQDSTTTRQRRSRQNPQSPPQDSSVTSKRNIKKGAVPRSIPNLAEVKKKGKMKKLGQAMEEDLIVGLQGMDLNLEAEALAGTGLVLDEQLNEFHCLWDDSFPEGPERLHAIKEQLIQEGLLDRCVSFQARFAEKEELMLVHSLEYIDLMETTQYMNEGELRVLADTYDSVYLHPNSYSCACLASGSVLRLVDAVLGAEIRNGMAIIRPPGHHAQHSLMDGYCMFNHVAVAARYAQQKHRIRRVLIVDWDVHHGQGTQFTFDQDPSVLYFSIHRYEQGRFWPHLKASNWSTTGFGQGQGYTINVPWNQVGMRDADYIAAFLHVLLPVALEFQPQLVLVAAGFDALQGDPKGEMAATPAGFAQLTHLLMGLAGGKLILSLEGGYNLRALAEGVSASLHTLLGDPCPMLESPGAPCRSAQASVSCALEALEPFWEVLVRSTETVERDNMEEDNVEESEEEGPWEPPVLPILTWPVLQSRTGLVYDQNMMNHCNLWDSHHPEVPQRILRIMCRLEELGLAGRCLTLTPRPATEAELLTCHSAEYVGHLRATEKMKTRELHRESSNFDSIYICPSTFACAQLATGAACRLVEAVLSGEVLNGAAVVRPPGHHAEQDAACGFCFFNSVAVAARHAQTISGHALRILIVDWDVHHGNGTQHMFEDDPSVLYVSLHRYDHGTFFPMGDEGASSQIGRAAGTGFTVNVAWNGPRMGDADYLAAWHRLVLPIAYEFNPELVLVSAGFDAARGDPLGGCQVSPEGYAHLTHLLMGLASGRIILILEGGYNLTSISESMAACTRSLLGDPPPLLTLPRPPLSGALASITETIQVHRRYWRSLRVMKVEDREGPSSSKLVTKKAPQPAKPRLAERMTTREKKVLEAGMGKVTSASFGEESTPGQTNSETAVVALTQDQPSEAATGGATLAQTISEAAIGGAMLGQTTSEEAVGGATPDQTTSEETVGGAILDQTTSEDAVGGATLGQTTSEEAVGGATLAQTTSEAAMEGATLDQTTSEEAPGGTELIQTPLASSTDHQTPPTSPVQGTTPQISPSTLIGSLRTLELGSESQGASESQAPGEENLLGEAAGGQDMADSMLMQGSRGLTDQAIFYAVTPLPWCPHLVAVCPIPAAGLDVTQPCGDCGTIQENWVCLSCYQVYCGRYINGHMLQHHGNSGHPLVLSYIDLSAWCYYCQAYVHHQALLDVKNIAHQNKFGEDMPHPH

Human HDAC1 = Human HDAC1 (Homo sapiens (Human), UniProt Q13547); experiment: HDAC1 inhibition assay (fluorogenic p53 peptide substrate); format: biochemical; conditions: read-out: HDAC1 IC50 (μM) ± SD
Chain of Human HDAC1 (Q13547 whole entry): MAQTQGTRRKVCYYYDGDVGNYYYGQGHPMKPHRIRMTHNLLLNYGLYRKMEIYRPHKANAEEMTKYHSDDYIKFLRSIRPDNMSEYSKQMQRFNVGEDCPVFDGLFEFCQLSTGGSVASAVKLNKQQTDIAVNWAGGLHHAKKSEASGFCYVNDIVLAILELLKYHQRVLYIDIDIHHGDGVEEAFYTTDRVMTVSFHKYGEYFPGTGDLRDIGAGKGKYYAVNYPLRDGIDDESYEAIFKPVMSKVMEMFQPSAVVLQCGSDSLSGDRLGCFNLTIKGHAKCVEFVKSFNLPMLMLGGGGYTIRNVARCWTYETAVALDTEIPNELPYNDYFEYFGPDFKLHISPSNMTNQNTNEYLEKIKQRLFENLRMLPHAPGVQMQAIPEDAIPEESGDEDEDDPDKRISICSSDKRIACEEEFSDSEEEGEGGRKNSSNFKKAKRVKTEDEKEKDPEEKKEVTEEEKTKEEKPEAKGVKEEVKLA

HDAC5 = HDAC5 (Homo sapiens (Human), UniProt Q9UQL6); experiment: biochemical; conditions: mean of two experiments; read-out: HDAC5 IC50 (μM) ± SD
Chain of HDAC5 (Q9UQL6 whole entry): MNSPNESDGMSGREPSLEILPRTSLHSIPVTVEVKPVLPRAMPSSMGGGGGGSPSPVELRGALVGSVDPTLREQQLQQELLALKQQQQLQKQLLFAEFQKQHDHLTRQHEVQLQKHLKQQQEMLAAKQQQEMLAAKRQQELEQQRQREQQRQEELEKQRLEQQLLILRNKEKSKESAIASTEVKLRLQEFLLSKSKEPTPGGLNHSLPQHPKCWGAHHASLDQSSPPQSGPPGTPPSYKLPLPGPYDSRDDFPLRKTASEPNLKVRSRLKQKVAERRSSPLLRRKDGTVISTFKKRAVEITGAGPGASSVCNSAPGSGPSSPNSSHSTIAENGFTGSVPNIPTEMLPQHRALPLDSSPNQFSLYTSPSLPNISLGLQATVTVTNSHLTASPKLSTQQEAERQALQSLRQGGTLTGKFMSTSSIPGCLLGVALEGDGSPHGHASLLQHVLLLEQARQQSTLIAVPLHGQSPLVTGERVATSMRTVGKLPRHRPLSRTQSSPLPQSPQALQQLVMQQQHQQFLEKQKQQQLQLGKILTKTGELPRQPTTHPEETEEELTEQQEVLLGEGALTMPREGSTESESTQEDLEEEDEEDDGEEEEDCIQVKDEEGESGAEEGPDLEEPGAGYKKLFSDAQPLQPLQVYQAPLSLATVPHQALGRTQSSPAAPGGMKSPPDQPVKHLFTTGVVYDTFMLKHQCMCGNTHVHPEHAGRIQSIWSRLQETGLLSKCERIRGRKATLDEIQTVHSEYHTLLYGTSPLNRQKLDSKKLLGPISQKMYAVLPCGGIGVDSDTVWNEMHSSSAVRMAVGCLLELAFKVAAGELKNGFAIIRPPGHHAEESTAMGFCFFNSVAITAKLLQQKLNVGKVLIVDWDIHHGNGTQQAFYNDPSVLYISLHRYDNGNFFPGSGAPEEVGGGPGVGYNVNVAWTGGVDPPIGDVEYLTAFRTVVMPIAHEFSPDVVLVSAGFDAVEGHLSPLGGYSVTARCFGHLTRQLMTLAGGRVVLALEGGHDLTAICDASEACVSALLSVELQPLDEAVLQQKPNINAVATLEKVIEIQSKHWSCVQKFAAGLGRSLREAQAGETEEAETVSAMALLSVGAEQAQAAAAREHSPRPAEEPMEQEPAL

mice with colitis = experiment: Colitis in mice; format: in vivo; conditions: treatment begun once colitis had developed
Description: Studies of autoimmunity also are undertaken. In this case, interruption of existing disease is especially important and HDAC6 targeting can be efficacious without any requirement for additional therapy (in contrast to a need for brief low-dose RPM in the very aggressive, fully MHC-mismatched transplant models). […] These studies are extended by assessing whether deletion of HDAC6 in Tregs (Foxp3/Cre) vs. T cells (CD4=Cre) vs. DC (CD11c-Cre) differentially affect the development and severity of colitis. Similarly, control of colitis is assessed by inducing HDAC6 deletion at varying intervals after the onset of colitis with tamoxifen-regulated Cre.

HDAC2 = HDAC2 (Homo sapiens (Human), UniProt Q92769); experiment: biochemical
Chain of HDAC2 (Q92769 whole entry): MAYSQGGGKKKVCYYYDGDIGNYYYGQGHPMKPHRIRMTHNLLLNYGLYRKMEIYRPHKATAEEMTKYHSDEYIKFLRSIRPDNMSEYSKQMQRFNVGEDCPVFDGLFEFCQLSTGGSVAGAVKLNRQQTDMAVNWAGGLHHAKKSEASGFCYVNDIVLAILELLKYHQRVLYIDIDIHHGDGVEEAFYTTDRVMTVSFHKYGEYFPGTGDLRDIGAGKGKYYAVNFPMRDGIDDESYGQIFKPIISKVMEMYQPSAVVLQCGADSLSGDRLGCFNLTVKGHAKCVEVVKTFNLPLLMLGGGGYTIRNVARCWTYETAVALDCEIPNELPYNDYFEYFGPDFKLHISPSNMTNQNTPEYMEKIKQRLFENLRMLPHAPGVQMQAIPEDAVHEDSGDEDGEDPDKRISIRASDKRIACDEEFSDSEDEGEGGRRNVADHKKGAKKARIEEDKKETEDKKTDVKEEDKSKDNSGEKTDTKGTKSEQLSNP

HDAC7 = HDAC7 (Homo sapiens (Human), UniProt Q8WUI4); experiment: HDAC7 inhibition assay
Chain of HDAC7 (Q8WUI4 whole entry): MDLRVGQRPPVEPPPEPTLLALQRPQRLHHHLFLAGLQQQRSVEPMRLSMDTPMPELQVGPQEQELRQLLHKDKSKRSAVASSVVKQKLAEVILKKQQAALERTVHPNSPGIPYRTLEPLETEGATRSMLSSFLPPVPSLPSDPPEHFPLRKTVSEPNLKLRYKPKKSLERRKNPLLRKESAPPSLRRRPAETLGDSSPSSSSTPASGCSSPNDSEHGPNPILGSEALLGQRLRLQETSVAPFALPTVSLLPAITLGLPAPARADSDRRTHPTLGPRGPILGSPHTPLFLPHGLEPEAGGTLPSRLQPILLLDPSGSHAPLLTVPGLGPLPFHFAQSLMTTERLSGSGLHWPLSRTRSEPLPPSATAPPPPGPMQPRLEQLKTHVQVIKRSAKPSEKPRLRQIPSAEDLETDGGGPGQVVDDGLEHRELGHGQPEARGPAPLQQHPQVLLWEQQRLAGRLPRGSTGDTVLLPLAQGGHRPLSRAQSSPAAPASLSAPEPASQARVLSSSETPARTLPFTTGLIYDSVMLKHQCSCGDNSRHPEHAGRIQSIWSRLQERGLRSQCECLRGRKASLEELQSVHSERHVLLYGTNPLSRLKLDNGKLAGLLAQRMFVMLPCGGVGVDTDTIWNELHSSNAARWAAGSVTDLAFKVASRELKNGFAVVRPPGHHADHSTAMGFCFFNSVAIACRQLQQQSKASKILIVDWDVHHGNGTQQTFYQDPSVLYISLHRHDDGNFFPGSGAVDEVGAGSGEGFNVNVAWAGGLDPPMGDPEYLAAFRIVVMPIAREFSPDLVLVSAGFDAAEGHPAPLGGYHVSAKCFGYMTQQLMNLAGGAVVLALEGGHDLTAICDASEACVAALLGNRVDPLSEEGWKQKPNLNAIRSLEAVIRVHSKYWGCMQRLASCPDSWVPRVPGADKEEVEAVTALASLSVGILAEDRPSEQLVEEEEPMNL

[2] = mean of two experiments (TSA: 9), 10-dose, 3-fold serial dilution from 30 μM

Structure (SMILES): CN1CCc2c(c3ccccc3n2Cc2ccc(C(=O)NO)cc2)C1 [Compound 6, N-Hydroxy-4-(2-methyl-1,2,3,4-tetrahydro-pyrido[4,3-b]indol-5-ylmethyl)benzamide]
- signs of overt toxicity (food and liquid intake, weight loss, locomotion, exploratory behavior) (Aβ-infused mice; during the memory experiments): no signs of overt toxicity
- freezing response (contextual fear conditioning) (Aβ-infused mice; vehicle-infused mice, 25 mg/kg ip): no effect
- effects on motor, sensorial, or motivational skills (mice): no effects
- concentration enhancing murine Treg suppression (murine Treg): greater than 100 μM
- body weight [1]: No loss of body weight
- toxicity to neurons when tested alone (primary cortical neurons; alone (no HCA), all concentrations shown): no toxicity
- concentration at which dose-dependent protection against HCA-induced neuronal cell death starts (primary cortical neurons; with HCA 5 mM, 24 h): 5 µM

Structure (SMILES): CN1CCc2c(n(Cc3ccc(C(=O)NO)cc3)c3ccccc23)C1 [Compound 7, N-Hydroxy-4-(2-methyl-1,2,3,4-tetrahydro-b-carbolin-9-ylmethyl)benzamide]
- selectivity for HDAC6 against HDAC1 (Human HDAC6; HDAC1 IC50/HDAC6 IC50): 3700 fold

Structure (SMILES): O=C(CCn1c2ccccc2c2ccccc21)NO [Compound 8, 3-Carbazol-9-yl-N-hydroxy-propionamide]
- IC50 (Human HDAC1; [2]): > 30 µM
- IC50 (Human HDAC6): 1.59 ± 0.08 µM

Structure (SMILES): O=C(CCCCn1c2ccccc2c2ccccc21)NO [Compound 9, 5-Carbazol-9-yl-pentanoic acid hydroxyamide]
- IC50 (Human HDAC1): 12.8 ± 0.7 µM
- IC50 (Human HDAC6): 2.63 ± 0.04 µM

Structure (SMILES): O=C(CCCCCCn1c2ccccc2c2ccccc21)NO [Compound 10, 7-Carbazol-9-ylheptanoic acid hydroxyamide]
- IC50 (Human HDAC1): 0.204 ± 0.087 µM
- IC50 (Human HDAC6): 0.006 ± 0.002 µM

Structure (SMILES): O=C(NO)n1c2ccccc2c2ccccc21 [Compound 13, Carbazole-9-carboxylic acid hydroxyamide]
- IC50 (Human HDAC1; [2]): > 30 µM
- IC50 (Human HDAC6): > 30 µM

Structure (SMILES): O=C(CCCCCCC(=O)Nc1ccc([C@H]2O[C@@H](CSc3nc(-c4ccccc4)c(-c4ccccc4)o3)C[C@@H](c3ccc(CO)cc3)O2)cc1)NO [Tubacin]
- IC50 (HDAC5): 3.35 ± 0.03 µM
- rescue of mice with established colitis (mice with colitis): able to rescue mice
- IC50 (HDAC2): 6.27 ± 0.29 µM
- IC50 (HDAC7): 9.7 ± 1.8 µM
